Each molecule was assayed against benzodiazepine receptor (assay: Displacement of 3H-flunitrazepam from benzodiazepine receptors in vitro (IC50)). Conditions: rat forebrain, 3H-flunitrazepam 1.0 nM, 0° C.
Type: binding
Description: For example, it is known that certain locations in the central nervous system of vertebrates have a high specific affinity for bonding 1,4 and 1,5-benzodiazepines. (See, e.g., R. F. Squires & C. Braestrup, Nature [London] 266 [1977], 734, which is incorporated by reference herein). These locations are called benzodiazepine receptors.
This displacement activity of the compounds of this invention has been determined by measuring IC50 and ED50 values. The IC50 value is the concentration which causes a 50% displacement of the specific binding of ^3 H-flunitrazepam (1.0 nM, 0° C.) in samples with a total volume of 0.55 ml of a suspension of brain membrane, e.g., from rats.
The displacement test is carried out as follows:
0.5 ml of a suspension of untreated rat forebrain in 25 mM KH2 PO4, at a pH of 7.1 (5-10 mg of tissue per sample) were incubated with ^3 H-diazepam (specific activity 14.4 Ci/millimole, 1.9 nM) or ^3 H-flunitrazepam (specific activity 87 Ci/millimole, 1.0 nM) for 40-60 minutes at 0° C. After incubation, the suspension is filtered through a glass frit, the residue is washed twice with a cold buffer solution and the radioactivity is measured by scintillation counting.
The test is then repeated, except prior to addition of the radioactively marked benzodiazepine, a given amount or an excess amount of the compound whose displacement activity is to be ascertained, is added. The IC50 value can then be computed from the test results obtained.

| SMILES | In vitro IC50, inhibition of 3H flunitrazepam binding (Affinity for the benzodiazepine receptor) [µg/mL] |
| --- | --- |
| CON=Cc1cc2c(cn1)[nH]c1ccccc12 [CHNOCH3, beta-carboline-3-carboxaldehyde-oxime-methylether] | 0.0513 |
| O=Cc1cc2c(cn1)[nH]c1ccccc12 [CHO, beta-carboline-3-carboxaldehyde] | 0.0302 |
| CCOC(=O)Cc1cc2c(cn1)[nH]c1ccccc12 [CH2 COOC2 H5] | 0.363 |
| CCOC(=O)C=Cc1cc2c(cn1)[nH]c1ccccc12 [CHCHCOOC2 H5, ethyl-3-(3-beta-carbolinyl)-acrylate] | 0.0589 |
| CC(=NN(C)C)c1cc2c(cn1)[nH]c1ccccc12 [drawing 25] | > 0.1 |
| CN(C)S(=O)(=O)c1ccc2[nH]c3cnc(C=NN4CCCC4)cc3c2c1 [drawing 34] | 0.008 |
| CCCCC(=NO)c1cc2c(cn1)[nH]c1ccccc12 | 0.468 |
| CC(=O)c1cc2c(cn1)[nH]c1ccccc12 [COCH3, 3-acetyl-beta-carboline] | 0.0224 |

These molecules were tested on male mice (assay: Inhibition of aggression in isolated male mice). Conditions: Mus musculus, po, 0.5 h; p.o., half an hour; read-out: Inhibition of Aggression ED50, p.o.
Type: in vivo
Procedure: The compounds of the invention have an antiaggressive effect on mice. Aggression inhibition was determined on male mice (NMR from Moellegard, Denmark) with weights of 20-22 g. The mice are kept isolated for three weeks in plastic cages and when two mice are subsequently put into the same cage, they will spontaneously and almost instantaneously start to fight.
J. Pharmacol., 1978, 47, 45-49. The compounds of this invention were administered subcutaneously and orally and the anti-aggressive effect half an hour later was determined. The ED50 values were determined from the test results. These test results are listed in Table 2 for compounds of this invention and also for several known tranquilizers.

| SMILES | ED50 [mg/kg] |
| --- | --- |
| CN(C)N=Cc1cc2c(cn1)[nH]c1ccccc12 [drawing 40] | ≤ 50 |
| CC(=NO)c1cc2c(cn1)[nH]c1ccccc12 [drawing 39] | 75 |

Same assay, conditions: Mus musculus, sc, 0.5 h; s.c., half an hour; read-out: Inhibition of Aggression ED50, s.c.

| SMILES | ED50 [mg/kg] |
| --- | --- |
| CON=Cc1cc2c(cn1)[nH]c1ccccc12 [CHNOCH3, beta-carboline-3-carboxaldehyde-oxime-methylether] | 15 |
| O=Cc1cc2c(cn1)[nH]c1ccccc12 [CHO, beta-carboline-3-carboxaldehyde] | 8 |
| CN(C)N=Cc1cc2c(cn1)[nH]c1ccccc12 [drawing 40] | 7.5 |
| CCOC(=O)Cc1cc2c(cn1)[nH]c1ccccc12 [CH2 COOC2 H5] | 75 |
| CCOC(=O)C=Cc1cc2c(cn1)[nH]c1ccccc12 [CHCHCOOC2 H5, ethyl-3-(3-beta-carbolinyl)-acrylate] | 4 |
| CC(=O)c1cc2c(cn1)[nH]c1ccccc12 [COCH3, 3-acetyl-beta-carboline] | 35 |

The molecules below were run on pentazole-induced convulsions (assay: Antagonism of pentazole-induced convulsions). Conditions: sc; clonic; read-out: Antagonism of pentazole-induced convulsions, ED50 s.c., Clonic convulsions.
Type: in vivo
Description: Moreover, the antagonism of pentazole-induced convulsions was investigated.
The test has been performed according to known test models in pharmacology,e.g., described in R. A. Turner, Screening Methods in Pharmacology, Academic Press, N.Y. and London 1965, esp. p. 164 ff., or, Woodbury, P. M., Perry, I. K. and Schmidt, R. P. Antiepileptic Drugs, Raven Press, N.Y. 1972.

| SMILES | ED50 [mg/kg] |
| --- | --- |
| C(=NN1CCCC1)c1cc2c(cn1)[nH]c1ccccc12 [drawing 45] | 20 |
| CCN(CC)N=Cc1cc2c(cn1)[nH]c1ccccc12 [drawing 41] | > 100 |
| CN(C)N=Cc1cc2c(cn1)[nH]c1ccccc12 [drawing 40] | 20 |
| CC(=NN(C)C)c1cc2c(cn1)[nH]c1ccccc12 [drawing 42] | > 100 |
| CN(C)S(=O)(=O)c1ccc2[nH]c3cnc(C=NN4CCCC4)cc3c2c1 [drawing 48] | 50 |
| CCOC(=O)C=Cc1cc2c(cn1)[nH]c1ccccc12 [CHCHCOOC2 H5, ethyl-3-(3-beta-carbolinyl)-acrylate] | > 100 |
| C(=NN1CCCCC1)c1cc2c(cn1)[nH]c1ccccc12 [drawing 43] | > 100 |
| C(=NN1CCOCC1)c1cc2c(cn1)[nH]c1ccccc12 [drawing 44] | 100 |
| CN(C)N=Cc1cc2c(cn1)[nH]c1ccc(S(=O)(=O)N(C)C)cc12 [drawing 46] | 20 |
| CC(=O)c1cc2c(cn1)[nH]c1ccccc12 [COCH3, 3-acetyl-beta-carboline] | > 100 |

Same assay, conditions: sc; death; read-out: Antagonism of pentazole-induced convulsions, ED50 s.c., Death

| SMILES | ED50 [mg/kg] |
| --- | --- |
| C(=NN1CCCC1)c1cc2c(cn1)[nH]c1ccccc12 [drawing 45] | 15 |
| CCN(CC)N=Cc1cc2c(cn1)[nH]c1ccccc12 [drawing 41] | 100 |
| CN(C)N=Cc1cc2c(cn1)[nH]c1ccccc12 [drawing 40] | < 10 |
| CC(=NN(C)C)c1cc2c(cn1)[nH]c1ccccc12 [drawing 42] | 75 |
| CN(C)S(=O)(=O)c1ccc2[nH]c3cnc(C=NN4CCCC4)cc3c2c1 [drawing 48] | 20 |
| CCOC(=O)C=Cc1cc2c(cn1)[nH]c1ccccc12 [CHCHCOOC2 H5, ethyl-3-(3-beta-carbolinyl)-acrylate] | 35 |
| C(=NN1CCCCC1)c1cc2c(cn1)[nH]c1ccccc12 [drawing 43] | > 100 |
| C(=NN1CCOCC1)c1cc2c(cn1)[nH]c1ccccc12 [drawing 44] | 50 |
| CN(C)N=Cc1cc2c(cn1)[nH]c1ccc(S(=O)(=O)N(C)C)cc12 [drawing 46] | 15 |
| CC(=O)c1cc2c(cn1)[nH]c1ccccc12 [COCH3, 3-acetyl-beta-carboline] | 75 |

Same assay, conditions: sc; tonic; read-out: Antagonism of pentazole-induced convulsions, ED50 s.c., Tonic convulsions

| SMILES | ED50 [mg/kg] |
| --- | --- |
| C(=NN1CCCC1)c1cc2c(cn1)[nH]c1ccccc12 [drawing 45] | 15 |
| CCN(CC)N=Cc1cc2c(cn1)[nH]c1ccccc12 [drawing 41] | 100 |
| CN(C)N=Cc1cc2c(cn1)[nH]c1ccccc12 [drawing 40] | < 10 |
| CC(=NN(C)C)c1cc2c(cn1)[nH]c1ccccc12 [drawing 42] | 75 |
| CN(C)S(=O)(=O)c1ccc2[nH]c3cnc(C=NN4CCCC4)cc3c2c1 [drawing 48] | 20 |
| CCOC(=O)C=Cc1cc2c(cn1)[nH]c1ccccc12 [CHCHCOOC2 H5, ethyl-3-(3-beta-carbolinyl)-acrylate] | 100 |
| C(=NN1CCCCC1)c1cc2c(cn1)[nH]c1ccccc12 [drawing 43] | 50 |
| C(=NN1CCOCC1)c1cc2c(cn1)[nH]c1ccccc12 [drawing 44] | 50 |
| CN(C)N=Cc1cc2c(cn1)[nH]c1ccc(S(=O)(=O)N(C)C)cc12 [drawing 46] | 15 |
| CC(=O)c1cc2c(cn1)[nH]c1ccccc12 [COCH3, 3-acetyl-beta-carboline] | 100 |

The molecules below were run on benzodiazepine receptor (assay: In vivo inhibition of 3H-flunitrazepam binding to the benzodiazepine receptor in living brain (ED50)). Conditions: mice, subcutaneous, 3H-flunitrazepam i.v. 15 min later.

| SMILES | In vivo ED50, inhibition of 3H flunitrazepam binding (Affinity for the benzodiazepine receptor) [mg/kg] |
| --- | --- |
| CON=Cc1cc2c(cn1)[nH]c1ccccc12 [CHNOCH3, beta-carboline-3-carboxaldehyde-oxime-methylether] | 16 |
| O=Cc1cc2c(cn1)[nH]c1ccccc12 [CHO, beta-carboline-3-carboxaldehyde] | > 250 |
| CCOC(=O)Cc1cc2c(cn1)[nH]c1ccccc12 [CH2 COOC2 H5] | > 250 |
| CCOC(=O)C=Cc1cc2c(cn1)[nH]c1ccccc12 [CHCHCOOC2 H5, ethyl-3-(3-beta-carbolinyl)-acrylate] | > 250 |
| CC(=NN(C)C)c1cc2c(cn1)[nH]c1ccccc12 [drawing 25] | 119 |
| CN(C)S(=O)(=O)c1ccc2[nH]c3cnc(C=NN4CCCC4)cc3c2c1 [drawing 34] | 210 |
| CCCCC(=NO)c1cc2c(cn1)[nH]c1ccccc12 | > 250 |
| CC(=O)c1cc2c(cn1)[nH]c1ccccc12 [COCH3, 3-acetyl-beta-carboline] | 100 |

— patent US4596808A, “Pharmacologically active 3-substituted beta-carbolines useful as tranquilizers” (Schering Aktiengesellschaft, priority 1980, dated 1986)
